Experimental data reported in ChEMBL document CHEMBL4330132, “5-Keto-3-cyano-2,4-diaminothiophenes as selective maternal embryonic leucine zipper kinase inhibitors” (Bioorg Med Chem Lett, 2019).
In brackets after ≈: the same amount, converted by molar mass.

tested on: not listed separately; test: Kinetic solubility of the compound in pH 7.4 phosphate buffer; assay type: physicochemical; details: read-out: Kinetic_solubility

solubility kinetic	SMILES
189 µg/mL (≈ 429 µM)	N#Cc1c(NCCN2CCNCC2)sc(C(=O)c2ccc(Br)s2)c1N

biological target: T1, Maternal embryonic leucine zipper kinase (Homo sapiens, UniProt Q14680); test: Inhibition of recombinant human MELK expressed in Escherichia coli at 5 uM using ZIPtide as substrate measured after 0.5 hrs by ADP-Glo assay relative to control; details: not given
Target sequence in this assay (Q14680 whole entry, looked up): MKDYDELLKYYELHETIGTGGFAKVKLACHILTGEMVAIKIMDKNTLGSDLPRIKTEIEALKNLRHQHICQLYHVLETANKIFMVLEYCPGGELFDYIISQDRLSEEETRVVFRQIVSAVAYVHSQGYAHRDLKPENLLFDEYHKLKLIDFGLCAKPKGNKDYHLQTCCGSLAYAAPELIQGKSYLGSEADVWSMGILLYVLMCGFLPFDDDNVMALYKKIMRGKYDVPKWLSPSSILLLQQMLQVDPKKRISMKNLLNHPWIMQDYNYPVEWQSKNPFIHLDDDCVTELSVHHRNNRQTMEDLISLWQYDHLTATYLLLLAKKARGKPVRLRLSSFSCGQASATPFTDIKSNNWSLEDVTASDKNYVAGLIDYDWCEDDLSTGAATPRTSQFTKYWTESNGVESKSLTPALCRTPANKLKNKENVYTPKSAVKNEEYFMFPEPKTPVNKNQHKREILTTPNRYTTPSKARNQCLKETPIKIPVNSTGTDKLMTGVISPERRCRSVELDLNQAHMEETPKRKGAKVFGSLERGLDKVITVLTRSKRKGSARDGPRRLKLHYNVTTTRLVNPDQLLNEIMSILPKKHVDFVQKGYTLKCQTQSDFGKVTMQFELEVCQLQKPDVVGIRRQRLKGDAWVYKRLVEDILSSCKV

inhibition	SMILES
46%	CC(C)Nc1nc(N)c(C(=O)c2ccc(Cl)s2)s1
47%	CC(C)Nc1sc(C(=O)c2ccccc2)c(N)c1C#N
49%	Cc1ccc(C(=O)c2sc(NC(C)C)c(C#N)c2N)cc1

tested on: not listed separately; test: Lipophilicity, log P of the compound; assay type: physicochemical; details: octanol/water

logP	SMILES
3	N#Cc1c(NCCN2CCNCC2)sc(C(=O)c2ccc(Br)s2)c1N

biological target: T1, Maternal embryonic leucine zipper kinase; test: Inhibition of recombinant human MELK expressed in Escherichia coli using ZIPtide as substrate measured after 0.5 hrs by ADP-Glo assay; details: not given
Target sequence in this assay (Q14680 whole entry): as the sequence (Q14680 whole entry, looked up) above

IC50	SMILES
> 5000 nM	C=CCNc1sc(C(=O)C(C)(C)C)c(N)c1C#N
1120 nM	CC(C)Nc1sc(C(=O)c2ccc3c(c2)OCO3)c(N)c1C#N
494 nM	Cc1ccc(C(=O)c2sc(NC(C)C)c(C#N)c2N)s1
> 5000 nM	CC(C)Nc1nc(N)c(C(=O)c2ccc(Cl)s2)s1
575 nM	CC(C)Nc1sc(C(=O)c2cc(Cl)cs2)c(N)c1C#N
> 5000 nM	CC(C)Nc1sc(C(=O)c2cccnc2)c(N)c1C#N
> 5000 nM	CC(C)Nc1sc(C(=O)c2ccncc2)c(N)c1C#N
> 5000 nM	CC(C)Nc1sc(C(=O)c2ccc(C#N)cc2)c(N)c1C#N
4130 nM	COc1ccc(C(=O)c2sc(NC(C)C)c(C#N)c2N)cc1
1420 nM	CC(C)N(C)c1sc(C(=O)c2ccc(Cl)s2)c(N)c1C#N
222 nM	CCNc1sc(C(=O)c2ccc(Cl)s2)c(N)c1C#N
638 nM	C=CCNc1sc(C(=O)c2ccc(Cl)s2)c(N)c1C#N
350 nM	CC(C)Nc1sc(C(=O)c2ccc(-c3cccc(O)c3)s2)c(N)c1C#N
> 5000 nM	CC(=O)c1sc(NC(C)C)c(C#N)c1N
707 nM	N#Cc1c(Nc2ccccc2F)sc(C(=O)c2ccc(Cl)s2)c1N
122 nM	CC(C)Nc1sc(C(=O)c2ccc(Br)s2)c(N)c1C#N
1770 nM	COc1ccc(C(=O)c2sc(NC(C)C)c(C#N)c2N)cc1OC

Further lines, the compound ahead of its results:

SMILES	IC50
N#Cc1ccccc1Nc1sc(C(=O)c2ccc(Br)s2)c(N)c1C#N	> 5000 nM
CC(C)Nc1sc(C(=O)c2ccc(I)s2)c(N)c1C#N	112 nM
COc1ccc(C(=O)c2sc3nc(C)ccc3c2N)cc1OC	> 5000 nM
CC(C)Nc1sc(C(=O)c2cc(Br)cs2)c(N)c1C#N	599 nM
CC(C)Nc1sc(C(=O)c2cccc(C#N)c2)c(N)c1C#N	> 5000 nM
CC(C)Nc1sc(C(=O)c2ccc(Cl)s2)c(N)c1C(N)=O	388 nM
Cc1ccc(C(=O)c2sc3nc(C)ccc3c2N)cc1	> 5000 nM
CCNc1sc(C(=O)c2cccs2)c(N)c1C#N	1190 nM
CC(C)Nc1sc(C(=O)c2ccn[nH]2)c(N)c1C#N	1700 nM
CC(C)Nc1sc(C(=O)c2ccc(-c3ccc(O)cc3)s2)c(N)c1C#N	241 nM
N#Cc1c(NCCCN)sc(C(=O)c2ccc(Br)s2)c1N	141 nM
CC(C)Nc1sc(C(=O)c2ccc(Cl)s2)cc1C#N	> 5000 nM
N#Cc1c(NCCO)sc(C(=O)c2ccc(Br)s2)c1N	313 nM
N#Cc1c(NCC(N)=O)sc(C(=O)c2ccc(Br)s2)c1N	540 nM
N#Cc1c(NCc2ccccc2)sc(C(=O)c2ccc(Cl)s2)c1N	> 5000 nM
CC(C)Nc1sc(C(=O)c2ccc(-c3ccncc3)s2)c(N)c1C#N	269 nM
N#Cc1c(NCCN2CCNCC2)sc(C(=O)c2ccc(Br)s2)c1N	98 nM
CC(C)Nc1sc(C(=O)c2ccco2)c(N)c1C#N	1350 nM

tested on: not listed separately; test: Stability in mouse liver microsomes assessed as parent compound remaining after 1 hr; assay type: ADME, Microsome; details: read-out: Stability

remaining at 1 h	SMILES
81%	N#Cc1c(NCCN2CCNCC2)sc(C(=O)c2ccc(Br)s2)c1N
